Test results: patent US6454951B1, “Photosensitive composition” (priority 1996, dated 2002)

Legend:
Escherichia coli = assay: Photo-inactivation of bacteria by visible light irradiation (cell survival); conditions: in words
Vibrio anguillarum = assay: as above; format: cell-based; conditions: in words

With “Meso-di(N-methyl-4-pyridyl)diphenylporphine [Di(4-N-MPy)Ph2P]” the “Photo-inactivation compared with T4MPyP” value (Escherichia coli) was “more rapid and more intense photo-inactivation”, the “Effect of washing operations on photosensitizing efficiency” value (Vibrio anguillarum; Gram-negative bacteria, FIG. 1, visible light) was “less sensitive to washing and retains a high photoactivity” and the “Photo-inactivation compared with T4MPyP” value (Vibrio anguillarum; Vibrio anguillarum, visible light) was “more rapid and more intense photo-inactivation”.
